Experimental data: patent US10273442B1, “Device and method for concomitant ejection and suction of perfusate” (priority 2015, dated 2019)
“Also recorded” adds a separate entry of the source.

Experiments:
Format in all cases: cell-based, rat
[1] = tested on: LII stellate cells in MEA; assay: Spontaneous postsynaptic currents (sEPSCs, sIPSCs) in LII stellate cells of MEA after focal application of compounds to PrS via CESOP, voltage-clamp in acute brain slices; conditions: for percentage reduction in sIPSC frequency following application of the drug: NBQX 10 μM focally to PrS; for average sIPSC frequency / average sEPSC amplitude / average sEPSC frequency: glutamate 100 μM then NBQX 10 μM focally to PrS, mean ±SEM; for average sIPSC frequency: holding 0 mV; for average sEPSC amplitude / average sEPSC frequency: holding -70 mV
Description: (§1) Sprague-Dawley rats (male; n=11 epileptic, n=15 controls) from postnatal (P) days 40 to 88 were used in this study. All experiments were carried out in accordance with the National Institute of Health Guide for the Care and Use of Laboratory Animals and were approved by the Florida State University Institutional Animal Care and Use Committee. Rats were made epileptic according to previously described protocols for bringing up the pilocarpine model of TLE. Briefly, rats were treated with pilocarpine (P41, 141±2 g; 380 mg/kg i.p.) 20 min after atropine methylbromide (5 mg/kg i.p.). Diazepam (10 mg/kg i.p.) was administered 2 h after the onset of status epilepticus and repeated as needed. Following recovery from status epilepticus, rats were video monitored (40 h/wk) for spontaneous seizures. Animals used for electrophysiological experiments were confirmed epileptic, displaying frank spontaneous recurrent seizures scored 3 or greater on the Racine scale (Racine 1972) on two or more observations during the 40 h/wk video monitoring. Recordings from epileptic animals were made on average 39 days (P80) post status epilepticus (range: 25-47 days, P66-P88), with initial seizures observed between 5 and 29 days post status. Control groups consisted of naive rats that were on average P70 (range: P49-P91).
(§2) Rats were deeply anesthetized with urethane (1.5 g/kg ip) before being decapitated. Following decapitation, the brain was quickly removed from the skull before being placed in a chilled (4° C.) low-Ca^2+, low-Na^+“cutting solution” containing (in mM) 230 sucrose, 10 D-glucose, 26 NaHCO3, 2.5 KCl, 1.25 NaH2PO4, 10 MgSO4, and 0.5 CaCl2 equilibrated with a 95%-5% mixture of O2 and CO2. After removing the cerebellum and rostral half of the brain, a 10-15° semi-horizontal cut (in a ventral-caudal to dorsal-rostral plane) was made to the dorsal part of the cortex with respect to the horizontal plane (FIG. 2E). The cut dorsal surface of the brain was adhered to the cutting platform using cyanoacrylate glue. This cutting angle was chosen to increase the likelihood of preserving PrS projections to MEA in acute brain slices, because PrS projections tend to travel to the MEA in a lateroventral orientation. Semi-horizontal slices (400 μm) were prepared using a microslicer (VT1000S, Leica, Germany) in the chilled cutting solution and allowed to equilibrate in oxygenated artificial cerebrospinal fluid (aCSF) containing (in mM) 126 NaCl, 26 NaHCO3, 3 KCl, 1.25 NaH2PO4, 2 MgSO4, 2 CaCl2, 0.25 L-Glutamine, and 10 D-glucose (pH 7.4), first at 32° C. for 1 h and subsequently at room temperature before being transferred to the recording chamber.
(§3) Recordings were obtained at 32±1° C. from neurons in LII and LIII of MEA under Nomarski optics (Zeiss) using a visualized infrared setup (Hamamatsu) that enabled identification of their location within the various lamina. On average, 3.5±0.4 (range: 2-5) and 3.6±0.4 (range: 2-6) cells were recorded per animals in the control and epileptic groups respectively. Patch electrodes were pulled from borosilicate glass (1.5 mm outer diameter, 0.75 mm inner diameter, 3-6 MΩ). The internal solution for voltage-clamp experiments contained (in mM): 120 cesium gluconate, 1 MgCl2, 1 CaCl2, 11 CsCl, 10 HEPES, 2 NaATP, 0.3 NaGTP, 1 QX-314, 11 EGTA, and 20 biocytin (pH 7.3, corrected with Cs-OH; final osmotic concentration, 290 mOsm). The internal solution for current-clamp experiments contained (in mM): 105 potassium gluconate, 30 KCl, 10 HEPES, 10 phosphocreatine, 4 MgATP, 0.3 GTP (pH adjusted to 7.3 with KOH; final osmotic concentration, 300 mOsm).
(§4) Recording conditions were the same for control and epileptic animals. Slices were maintained in oxygenated (95% O2-5% CO2) aCSF, flowing at a rate of 2 ml/min. Drugs were applied focally to superficial PrS via the CESOP technique (FIGS. 4A-4E, described below). […]

[2] = tested on: LIII pyramidal neurons in MEA; assay: Spontaneous postsynaptic currents (sEPSCs, sIPSCs) in LIII pyramidal neurons of MEA after focal application of compounds to PrS via CESOP, voltage-clamp in acute brain slices
Description: as §1, §2, §3, §4

[3] = tested on: RS cell in LIII of PrS; assay: Action potential firing of PrS neurons on local application via CESOP, current-clamp in acute brain slices; conditions: glutamate 100 μM, 3 min duration
[4] = epileptic rats (pilocarpine model of TLE)
[5] = epileptic conditions, glutamate 100 μM then NBQX 10 μM focally to PrS, holding 0 mV, mean ±SEM

Row | SMILES | percentage reduction in sIPSC frequency following application of the drug ([1]; control animals) [%] | average sIPSC frequency ([1]; control rats) [Hz] | average sEPSC amplitude ([1]; control rats) [pA] | average sEPSC frequency ([1]; control rats) [Hz] | average sIPSC frequency [1, 4] [Hz] | average sEPSC amplitude [1, 4] [pA] | average sEPSC frequency [1, 4] [Hz] | percentage reduction in sIPSC frequency following application of the drug ([1]; epileptic rats) [%] | sIPSC frequency ([2]; control animals, glutamate 100 μM then NBQX 10 μM focally to PrS, holding 0 mV, mean ±SEM) [Hz] | reduction in sEPSC frequency following application of NBQX ([2]; control conditions, NBQX 10 μM focally to PrS) [%] | average sEPSC frequency ([2]; control rats, glutamate 100 μM then NBQX 10 μM focally to PrS, holding -70 mV, mean ±SEM) [Hz] | average sIPSC amplitude [2, 5] [pA] | average sIPSC frequency [2, 5] [Hz] | sEPSC frequency ([2]; epileptic rats (pilocarpine model of TLE), glutamate 100 μM then NBQX 10 μM focally to PrS, holding -70 mV, mean ±SEM) [Hz] | action potential discharge of PrS neurons in response to local application [3]
1 | NS(=O)(=O)c1cccc2c1c([N+](=O)[O-])cc1[nH]c(=O)c(=O)[nH]c12 [NBQX, 2,3-dioxo-6-nitro-1,2,3,4-tetrahydrobenzo[f]quinoxaline-7-sulfonamide] | 22 | 11.1±1.4 | 18±1 | 5.6±1 | 7.5±1 | 21±2 | 4.9±0.8 | 11 | 4.5±0.3 | 30 | 4.6±0.6 | 30±2 | 6.8±0.9 | 10.5±2 | –
2 | N[C@@H](CCC(=O)[O-])C(=O)[O-].[Na+].[Na+] [glutamate, Sodium glutamate] | – | – | – | – | – | – | – | – | – | – | – | – | – | – | sustained action potential discharge; also recorded: reliably evokes action potential firing
